From publication PMC9516332 (Frontiers in Oncology, 2022)
Read-outs that look alike come from different tables or passages of the source.

Assays:
Assay in all cases: Kinase panel profiling at 1 µmol/L (MSA or IMAP), percentage inhibition
Assay type in all cases: biochemical
[1] = target: T1, panel of 255 wild-type kinases (Homo sapiens, UniProt O00418); conditions: read-out: %-inhibition at 1 µmol/L, EEF2K
T1 sequence (O00418 1-725): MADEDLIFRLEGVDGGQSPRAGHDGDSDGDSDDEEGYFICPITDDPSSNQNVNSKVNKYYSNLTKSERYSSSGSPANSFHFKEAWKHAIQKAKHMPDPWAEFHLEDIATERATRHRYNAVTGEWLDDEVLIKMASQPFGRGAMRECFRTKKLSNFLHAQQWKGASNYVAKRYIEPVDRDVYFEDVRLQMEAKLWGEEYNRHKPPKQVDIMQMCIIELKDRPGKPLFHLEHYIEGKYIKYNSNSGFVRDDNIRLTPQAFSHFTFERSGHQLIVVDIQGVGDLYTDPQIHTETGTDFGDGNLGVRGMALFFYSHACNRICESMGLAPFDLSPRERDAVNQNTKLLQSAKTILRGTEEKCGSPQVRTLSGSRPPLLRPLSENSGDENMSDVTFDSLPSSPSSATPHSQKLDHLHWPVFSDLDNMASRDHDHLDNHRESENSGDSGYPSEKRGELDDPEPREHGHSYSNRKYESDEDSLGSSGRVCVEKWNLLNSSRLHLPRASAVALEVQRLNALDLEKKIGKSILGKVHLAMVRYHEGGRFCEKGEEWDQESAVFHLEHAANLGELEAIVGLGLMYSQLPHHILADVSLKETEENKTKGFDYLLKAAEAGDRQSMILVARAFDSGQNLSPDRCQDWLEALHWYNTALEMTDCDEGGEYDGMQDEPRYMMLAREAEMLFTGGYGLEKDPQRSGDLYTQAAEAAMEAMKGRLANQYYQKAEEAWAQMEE

[2] = target: panel of 255 wild-type kinases (Homo sapiens, UniProt O75116); conditions: read-out: %-inhibition at 1 µmol/L, ROCK2
[3] = target: panel of 255 wild-type kinases (Homo sapiens, UniProt P05771); conditions: read-out: %-inhibition at 1 µmol/L, PKCβ1
[4] = target: panel of 255 wild-type kinases (Homo sapiens, UniProt P06239); conditions: read-out: %-inhibition at 1 µmol/L, LCK
[5] = target: panel of 255 wild-type kinases (Homo sapiens, UniProt P19525); conditions: read-out: %-inhibition at 1 µmol/L, PKR
[6] = target: panel of 255 wild-type kinases (Homo sapiens, UniProt P49759); conditions: read-out: %-inhibition at 1 µmol/L, CLK1
[7] = target: T2, panel of 255 wild-type kinases (Homo sapiens, UniProt P51955); conditions: read-out: %-inhibition, NEK2
T2 sequence (P51955 1-445): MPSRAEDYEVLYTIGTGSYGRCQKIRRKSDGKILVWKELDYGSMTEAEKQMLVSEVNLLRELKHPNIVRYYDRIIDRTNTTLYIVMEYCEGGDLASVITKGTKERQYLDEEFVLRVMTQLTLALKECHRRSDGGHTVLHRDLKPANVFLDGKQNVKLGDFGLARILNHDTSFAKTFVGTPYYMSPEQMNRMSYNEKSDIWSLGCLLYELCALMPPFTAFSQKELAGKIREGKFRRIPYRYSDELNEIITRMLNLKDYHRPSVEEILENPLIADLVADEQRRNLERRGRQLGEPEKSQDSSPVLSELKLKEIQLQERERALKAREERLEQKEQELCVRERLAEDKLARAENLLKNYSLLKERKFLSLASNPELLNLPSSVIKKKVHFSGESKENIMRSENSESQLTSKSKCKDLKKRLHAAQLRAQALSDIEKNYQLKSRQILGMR

[8] = target: panel of 255 wild-type kinases (Homo sapiens, UniProt P54764); conditions: read-out: %-inhibition at 1 µmol/L, EPHA4
[9] = target: panel of 255 wild-type kinases (Homo sapiens, UniProt Q08345); conditions: read-out: %-inhibition at 1 µmol/L, DDR1
[10] = target: panel of 255 wild-type kinases (Homo sapiens, UniProt Q9NQU5); conditions: read-out: %-inhibition, PAK6
[11] = target: panel of 255 wild-type kinases (Homo sapiens, UniProt Q9UBS0); conditions: read-out: %-inhibition, p70S6Kβ
[12] = target: T3, panel of 255 wild-type kinases (Homo sapiens, UniProt Q9UHD2); conditions: read-out: %-inhibition at 1 µmol/L, TBK1
T3 sequence (Q9UHD2 1-729): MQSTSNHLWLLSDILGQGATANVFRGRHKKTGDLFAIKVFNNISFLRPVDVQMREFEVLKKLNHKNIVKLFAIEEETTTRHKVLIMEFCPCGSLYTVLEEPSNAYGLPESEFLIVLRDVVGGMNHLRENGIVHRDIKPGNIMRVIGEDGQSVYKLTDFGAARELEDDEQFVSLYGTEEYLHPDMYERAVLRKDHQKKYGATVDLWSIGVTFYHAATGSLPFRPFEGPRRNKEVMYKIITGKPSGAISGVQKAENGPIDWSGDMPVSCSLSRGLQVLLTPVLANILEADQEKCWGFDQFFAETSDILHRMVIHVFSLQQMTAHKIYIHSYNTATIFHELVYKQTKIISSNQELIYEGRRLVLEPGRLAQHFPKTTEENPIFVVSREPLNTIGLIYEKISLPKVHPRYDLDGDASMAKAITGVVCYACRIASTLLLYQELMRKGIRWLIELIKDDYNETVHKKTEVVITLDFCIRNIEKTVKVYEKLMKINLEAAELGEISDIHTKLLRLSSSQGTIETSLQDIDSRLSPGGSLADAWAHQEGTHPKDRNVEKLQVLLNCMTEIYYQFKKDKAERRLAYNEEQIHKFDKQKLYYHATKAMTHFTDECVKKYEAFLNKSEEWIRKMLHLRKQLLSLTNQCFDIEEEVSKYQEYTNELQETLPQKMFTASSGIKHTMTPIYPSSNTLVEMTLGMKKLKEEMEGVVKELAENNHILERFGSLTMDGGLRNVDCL

[13] = kinase EEF2K, 1 µmol/L single concentration
[14] = kinase ROCK2, 1 µmol/L single concentration
[15] = kinase PKCβ1, 1 µmol/L single concentration
[16] = kinase LCK, 1 µmol/L single concentration
[17] = kinase PKR, 1 µmol/L single concentration
[18] = kinase CLK1, 1 µmol/L single concentration
[19] = NEK2, 1 µmol/L single concentration
[20] = kinase EPHA4, 1 µmol/L single concentration
[21] = kinase DDR1, 1 µmol/L single concentration
[22] = PAK6, 1 µmol/L single concentration
[23] = p70S6Kβ, 1 µmol/L single concentration
[24] = kinase TBK1, 1 µmol/L single concentration

SMILES | inhibition at 1 µM [1, 13] | inhibition at 1 µM [2, 14] | inhibition at 1 µM [3, 15] | inhibition at 1 µM [4, 16] | inhibition at 1 µM [5, 17] | inhibition at 1 µM [6, 18] | inhibition at 1 µM [7, 19] | inhibition at 1 µM [8, 20] | inhibition at 1 µM [9, 21] | inhibition at 1 µM [10, 22] | inhibition at 1 µM [11, 23] | inhibition at 1 µM [12, 24] | other results
Cc1nc(NC(=O)N2CCC[C@H]2C(N)=O)sc1-c1ccnc(C(C)(C)C(F)(F)F)c1 [alpelisib] | 2% | 0.528% | 7% | 5% | -1% | 59% | 7.4% | -5% | 3.8% | 10% | 4.37% | -2.72% | –
Cn1cc(-c2cc3c(N4CCN(c5ncc([C@@](C)(N)c6ccc(F)cc6)cn5)CC4)ncnn3c2)cn1 [avapritinib] | -1.21% | 11% | 1.74% | 92% | 9% | – | 9% | 35% | – | 9% | 6% | -1.13% | –
Cn1cnc2c(F)c(Nc3ccc(Br)cc3F)c(C(=O)NOCCO)cc21 [binimetinib] | -6% | -4% | -3.39% | -0.655% | -11% | -1.7% | 0.117% | 7.56% | -0.162% | 4.75% | 1.09% | 0.416% | –
CNC(=O)c1ccc(-c2cnc3ncc(Cc4ccc5ncccc5c4)n3n2)cc1F [capmatinib] | – | – | – | – | – | – | – | – | – | – | – | – | inhibition at 1 µM [1]: -0.629%; inhibition at 1 µM [2]: -0.288%; inhibition at 1 µM [3]: 1.2%; inhibition at 1 µM [4]: 4.23%; inhibition at 1 µM [5]: 7%; inhibition at 1 µM [6]: 8%; inhibition at 1 µM [7]: 2.36%; inhibition at 1 µM [8]: -2.77%; inhibition at 1 µM [9]: -2.22e-14%; inhibition at 1 µM [10]: -34%; inhibition at 1 µM [11]: 12%; inhibition at 1 µM [12]: -2.83%
COc1cc2ncnc(Nc3ccc(F)c(Cl)c3)c2cc1NC(=O)/C=C/CN1CCCCC1 [dacomitinib] | 0% | -4.35% | 3.74% | 93% | 3.25% | 19% | -2.41% | 38% | 101% | 6.65% | -0.889% | 17% | –
C[C@H](Nc1ncnc2nc[nH]c12)c1cc2cccc(Cl)c2c(=O)n1-c1ccccc1 [duvelisib] | 0.762% | -0.18% | 5% | 7% | 2.64% | -0.419% | 9% | -0.265% | 6% | 3.69% | 2.47% | -2.46% | –
COC(=O)N[C@@H](C)CNc1nccc(-c2cn(C(C)C)nc2-c2cc(Cl)cc(NS(C)(=O)=O)c2F)n1 [encorafenib] | 1% | 1.32% | -1% | 1.39% | – | 3% | 2.77% | 10% | 0.442% | 13% | 8% | 1.21% | –
CN1CCN(c2ccc(C(=O)Nc3n[nH]c4ccc(Cc5cc(F)cc(F)c5)cc34)c(NC3CCOCC3)c2)CC1 [entrectinib] | 3.25% | 7% | 12% | – | 3.49% | 60% | 11% | 28% | 99% | 15% | 0.699% | 8% | –
CCc1nc(C(N)=O)c(Nc2ccc(N3CCC(N4CCN(C)CC4)CC3)c(OC)c2)nc1NC1CCOCC1 [gilteritinib] | -2.72% | 66% | 19% | 97% | – | 96% | 38% | 36% | 99% | 22% | 23% | 24% | –
CCN1CCN(c2ccc(Nc3cc(N(C)C(=O)Nc4c(Cl)c(OC)cc(OC)c4Cl)ncn3)cc2)CC1 [infigratinib] | 2.54% | -0.775% | 5% | 91% | 76% | 10% | 27% | 0.256% | 96% | 10% | 5.43% | -4% | –
C[C@H]1Oc2cc(cnc2N)-c2c(nn(C)c2C#N)CN(C)C(=O)c2ccc(F)cc21 [lorlatinib] | -1.73% | 3.28% | 7% | 24% | 0.666% | -2.47% | 10% | 25% | – | 14% | 11% | -1.23% | –
